From patent publication US11123359B2, “Methods and materials for treating hematological malignancies” (Mayo Foundation for Medical Education and Research, priority 2013, dated 2021)
[nps] = N3'-P5' thiophosphoramidate linkage (3'-amino-3'-deoxy nucleosides); {Palm} = O-[2-hydroxy-3-(hexadecanoylamino)propyl] group (palmitoyl lipid)

How the values were obtained:
[1] = tested on: granulocyte telomere length; experiment: Laboratory correlative study: granulocyte telomere length; assay type: in vivo, human; details: treated myelofibrosis patients
Description: (§1) Imetelstat sodium was administered by a 2-hour intravenous infusion (9.4 mg/kg) every three weeks (cohort A) or weekly×3 followed by every three weeks (cohort B). In addition, patient samples were screened for mutations in ASXL1, SRSF2, SF3B1, and U2AF1 by DNA sequencing. Quantitative PCR was used to measure JAK2V617F burden (assay sensitivity 0.01%). Laboratory correlative studies included analyses of granulocyte telomere length, mononuclear cell telomerase activity, and the presence of human telomerase reverse transcriptase (hTERT) isoforms.

[2] = tested on: patients with high or intermediate-2 risk myelofibrosis; experiment: Investigator-sponsored single-center clinical study (NCT01731951): responses by International Working Group criteria; assay type: in vivo, human
Description: (§2) In an investigator-sponsored single-center study (ClinicalTrials.gov, Identifier: NCT01731951), imetelstat sodium was administered to patients with high or intermediate-2 risk myelofibrosis. Adverse events were monitored by common terminology criteria (Version 4.03), and responses were monitored by the International Working Group criteria. Eligibility criteria included platelets≥50×10^9/L.
as §1
(§3) Thirty-three patients were accrued. The first 18 patients who were enrolled and followed for a minimum of three months or discontinued were assessed herein: eleven for cohort A, and seven for cohort B; 44% primary myelofibrosis, 33% post-PV myelofibrosis and 22% post-ET myelofibrosis. The median age was 68 years, and the baseline risk was high in 56% of the patients and intermediate-2 in 44% of the patients. Seven patients were transfusion-dependent. Median spleen size was 13 cm, and eleven patients had constitutional symptoms. Karyotype was abnormal in seven patients, and 89% were JAK2-mutated. Fifteen patients (83%) were previously treated, including seven with a JAK inhibitor and three with pomalidomide.

[3] = tested on: mononuclear cell telomerase activity; experiment: Laboratory correlative study: mononuclear cell telomerase activity; assay type: in vivo, human; details: treated myelofibrosis patients
Description: as §1

[4] = tested on: patients with high or intermediate-2 risk myelofibrosis; experiment: Clinical study (NCT01731951): adverse events by common terminology criteria (Version 4.03); assay type: in vivo, human
Description: as §2, §1, §3

[5] = tested on: human telomerase reverse transcriptase (hTERT) isoforms; experiment: Laboratory correlative study: human telomerase reverse transcriptase (hTERT) isoforms; assay type: in vivo; details: treated myelofibrosis patients
Description: as §1

[6] = first 18 patients, 9.4 mg/kg iv
[7] = cohort A (9.4 mg/kg every three weeks)
[8] = cohort B (9.4 mg/kg weekly x3 followed by every three weeks)

“5′-[O-[2-hydroxy-3-[(1-oxohexadecyl)amino]propyl] phosphorothioate]-d(3′-amino-3′-deoxy-P-thio)(T-A-G-G-G-T-T-A-G-A-C-A-A) (SEQ ID NO:1) sodium salt (13) (TAGGGTTAGACAA; all [nps], 5' {Palm}*, sugars by position and methylation of C not given here; 3'-amino-3'-deoxy nucleosides, sodium salt) [imetelstat sodium, sodium salt of imetelstat, a synthetic lipid-conjugated, 13-mer oligonucleotide N3′ P5′-thio-phosphoramidate]” was tested, and the “effect on telomere length” value [1] was “shortening of telomere length”, the complete molecular responses ([2]; CR patients, U2AF1Q157P and 10% JAK2V617F, SF3B1K666E and 50% JAK2V617F) was “two” and the “reduction in U2AF1 469_insAGTATG mutation” value ([2]; a third CR patient) was greater than 50%. The “patients with leukocytosis who normalized their count or had a >50% reduction” value ([2]; among thirteen patients with leukocytosis) was 77%, the “CR patients transfusion-dependent at baseline who became transfusion-independent” value ([2]; first 18 patients) was “Two” and the “complete or partial resolution of leukoerythroblastosis” value ([2]; first 18 patients) was 61%. The overall response rate ([2]; first 18 patients, 9.4 mg/kg 2-hour intravenous infusion, cohorts A and B) was 44%, the “CR patients with reversal of bone marrow fibrosis and recovery of normal megakaryocyte morphology” value [2, 6] was 22% and the “partial response (PR), number of patients” value [2, 6] was 1 patients. The “patients who met the bone marrow and peripheral blood morphologic criteria for complete response (CR) or partial response (PR)” value [2, 6] was 28%, the “patients with clinical improvement” value ([2]; first 18 patients, pending validation of response duration and resolution of drug-induced grade-1 thrombocytopenia) was “three” and the “patients achieving CR” value ([2]; six patients with a spliceosome mutated genotype) was 50%. For the same substance, the “patients achieving CR” value ([2]; twelve patients with an unmutated spliceosome genotype) was 8%, the “effect on telomerase activity” value [3] was “suppression of telomerase activity” and the grade-3 anemia [4, 7] was 9%. The grade-3 thrombocytopenia [4, 7] was 27%, the “grade-4 treatment-related adverse events” value [4, 7] was “no grade-4 treatment-related adverse events” and the grade-3 anemia [4, 8] was “one”. For the same substance, the grade-3 neutropenia [4, 8] was “one”, the grade-3 thrombocytopenia [4, 8] was “one” and the grade-4 thrombocytopenia [4, 8] was 29%. For the same substance, the “dose reduction necessary because of grade 3 or 4 myelosuppression” value ([4]; first 18 patients) was 11%, the “patients remaining on treatment” value ([4]; median follow-up of 3.2 months, first 18 patients) was 89% and the grade-3/4 myelosuppression ([4]; patients with an unmutated spliceosome genotype) was 25%. For the same substance, the grade-3/4 myelosuppression ([4]; spliceosome-mutated patients) was 67% and the “effect on hTERT isoform pattern” value [5] was “alteration of the hTERT isoform pattern”.
With “imetelstat: telomerase inhibitor; synthetic lipid-conjugated, 13-mer oligonucleotide N3′ P5′-thio-phosphoramidate (DNA TAGGGTTAGACAA; listed as DNA, chemistry not fully specified)” the “likelihood of complete or partial remission” value ([2]; ASXL1-mutated cases among the 33 study patients) was 0% and the “likelihood of complete or partial remission” value ([2]; ASXL1-unmutated cases among the 33 study patients) was 36%.
